Results from patent US20260008780A1, “SUBSTITUTED 3,4-DIHYDROISOQUINOLIN-1(2H)-ONE DERIVATIVES AND RELATED USES” (NodThera Limited, priority 2022, published 2026).

Test system: IL-1β release upon NLRP3 activation in peripheral blood mononuclear cells (PBMC)
Test: PBMC IC50 Determination Assay
Assay type: cell-based
Settings: Homo sapiens; PBMC from buffy coats, LPS 3 h, compound 30 min, then ATP (5 mM) or nigericin (10 μM) 1 h; IL-1β in media by ELISA (Protocol A) or HTRF (Protocol B)
Protocol: The compounds of the present disclosure were tested for their inhibitory activity against IL-1β release upon NLRP3 activation in peripheral blood mononuclear cells (PBMC).
Protocol A. PBMC were isolated from buffy coats by density gradient centrifugation on Histopaque-1077 (Sigma, cat no. 10771). Isolated cells were seeded into the wells of a 96-well plate and incubated for 3 h with lipopolysaccharide (LPS). Following medium exchange, the compounds of the present disclosure were added (a single compound per well) and the cells were incubated for 30 min. Next, the cells were stimulated either with ATP (5 mM) or nigericin (10 μM) for 1 h and the cell culture media from the wells were collected for further analysis.
The release of IL-1β into the media was determined by a quantitative detection of IL-1β in the media using an IL-1p enzyme-linked immunosorbent assay (ELISA) Ready-SET-Go!, eBioscience cat. No. 88-7261-88. Briefly, in a first step, high affinity binding plates (Corning, Costar 9018 or NUNC Maxisorp Cat No. 44-2404) were coated overnight at 4° C. with specific capture antibody included in the kit (anti-human IL-1β ref 14-7018-68). Subsequently, plates were blocked with blocking buffer for 1 h at room temperature (rt) and after washing with a buffer (PBS with 0.05% Tween-20) incubated with protein standard and culture media. After 2 h of incubation at rt, plates were washed and incubated with biotinylated detection antibody included in the kit (anti-human IL-1β Biotin ref. 33-7110-68) for 1 h at rt. Plates were washed and incubated with HRP-streptavidin for 30 min at rt and washed again. The signal was developed after addition of 3,3′,5,5′-tetramethylbenzidine-peroxidase (TMB) until colour appeared and the reaction was stopped by 2 M H2SO4. A microplate spectrophotometer (BioTek) was used to detect signals with 450 nm. The detection range of IL-1β ELISA was […].
Protocol B. PBMC were isolated from buffy coats by density gradient centrifugation on Histopaque-1077 (Sigma, cat no. 10771). Isolated cells were seeded into the wells (280,000 cells/well) of a 96-well plate and incubated for 3 h with lipopolysaccharide (LPS, 1 μg/mL diluted 1000× from a 1 mg/mL stock solution). The compounds of the present disclosure were added (a single compound per well) and the cells were incubated for 30 min. Next, the cells were stimulated with ATP (5 mM final concentration diluted 20× from a 100 mM stock solution) for 1 h and the cell culture media from the wells were collected for further analysis.
The release of IL-1β into the media was determined by quantitative detection of IL-1β in the media using HTRF®, CisBio cat. No. 62HIL1BPEH. Briefly, cell culture supernatant were dispensed directly into the assay plate containing antibodies labelled with the HTRF® donor and acceptor. A microplate spectrophotometer (BMG) was used to detect signals at 655 nm and 620 nm. The detection range of IL-1β HTRF® was 39-6500 μg/mL.

Structure (SMILES)	IC50 [µM]
CCc1cc2c(s1)C(=O)N(CC(=O)Nc1ccc3nncn3n1)CC21CC1 [Compound 45, 2-{2′-Ethyl-7′-oxo-6′,7′-dihydro-5′H-spiro[cyclopropane-1,4′-thieno[2,3-c]pyridin]-6′-yl}-N-{[1,2,4]triazolo[4,3-b]pyridazin-6-yl}acetamide]	0.1 to 1
CCc1cc2c(s1)C(=O)N(CC(=O)Nc1ncco1)CC21CC1 [Compound 46, 2-{2′-Ethyl-7′-oxo-6′,7′-dihydro-5′H-spiro[cyclopropane-1,4′-thieno[2,3-c]pyridin]-6′-yl}-N-(1,3-oxazol-2-yl)acetamide]	0.1 to 1
CCc1cc2c(s1)C(=O)N(CC(=O)Nc1ccc3nncn3c1)CC21CC1 [Compound 47, 2-{2′-Ethyl-7′-oxo-6′,7′-dihydro-5′H-spiro[cyclopropane-1,4′-thieno[2,3-c]pyridin]-6′-yl}-N-{[1,2,4]triazolo[4,3-a]pyridin-6-yl}acetamide]	1 to 3
CCc1cc2c(s1)C(=O)N(CC(=O)Nc1ccc(OC)nc1)CC21CC1 [Compound 48, 2-{2′-Ethyl-7′-oxo-6′,7′-dihydro-5′H-spiro[cyclopropane-1,4′-thieno[2,3-c]pyridin]-6′-yl}-N-(6-methoxypyridin-3-yl)acetamide]	3 to 10
CCc1cc2c(s1)C(=O)N(CC(=O)Nc1ccc3[nH]c(=O)n(C)c3c1)CC21CC1 [Compound 49, 2-{2′-Ethyl-7′-oxo-6′,7′-dihydro-5′H-spiro[cyclopropane-1,4′-thieno[2,3-c]pyridin]-6′-yl}-N-(3-methyl-2-oxo-2,3-dihydro-1H-1,3-benzodiazol-5-yl)acetamide]	3 to 10
CCc1cc2c(s1)C(=O)N(CC(=O)Nc1ccncn1)CC21CC1 [Compound 50, 2-{2′-Ethyl-7′-oxo-6′,7′-dihydro-5′H-spiro[cyclopropane-1,4′-thieno[2,3-c]pyridin]-6′-yl}-N-(pyrimidin-4-yl)acetamide]	0.1 to 1
CCc1cc2c(s1)C(=O)N(CC(=O)Nc1nccc(=O)[nH]1)CC21CC1 [Compound 51, 2-{2′-Ethyl-7′-oxo-6′,7′-dihydro-5′H-spiro[cyclopropane-1,4′-thieno[2,3-c]pyridin]-6′-yl}-N-(6-oxo-1,6-dihydropyrimidin-2-yl)acetamide]	3 to 10
CCc1cc2c(s1)C(=O)N(CC(=O)Nc1ncc(-n3cccn3)cn1)CC21CC1 [Compound 52, 2-{2′-Ethyl-7′-oxo-6′,7′-dihydro-5′H-spiro[cyclopropane-1,4′-thieno[2,3-c]pyridin]-6′-yl}-N-[5-(1H-pyrazol-1-yl)pyrimidin-2-yl]acetamide]	1 to 3
CCc1cc2c(s1)C(=O)N(CC(=O)Nc1ncc([N+](=O)[O-])cn1)CC21CC1 [Compound 53, 2-{2′-Ethyl-7′-oxo-6′,7′-dihydro-5′H-spiro[cyclopropane-1,4′-thieno[2,3-c]pyridin]-6′-yl}-N-(5-nitropyrimidin-2-yl)acetamide]	0.1 to 1
CCc1cc2c(s1)C(=O)N(CC(=O)Nc1ncc(Cl)cn1)CC21CC1 [Compound 54, N-(5-Chloropyrimidin-2-yl)-2-{2′-ethyl-7′-oxo-6′,7′-dihydro-5′H-spiro[cyclopropane-1,4′-thieno[2,3-c]pyridin]-6′-yl}acetamide]	0.1 to 1
CCc1cc2c(s1)C(=O)N(CC(=O)Nc1ccc(C#N)cn1)CC21CC1 [Compound 55, N-(5-Cyanopyridin-2-yl)-2-{2′-ethyl-7′-oxo-6′,7′-dihydro-5′H-spiro[cyclopropane-1,4′-thieno[2,3-c]pyridin]-6′-yl}acetamide]	1 to 3
CCc1cc2c(s1)C(=O)N(CC(=O)Nc1ncc(C(F)(F)F)cc1F)CC21CC1 [Compound 56, 2-{2′-Ethyl-7′-oxo-6′,7′-dihydro-5′H-spiro[cyclopropane-1,4′-thieno[2,3-c]pyridin]-6′-yl}-N-[3-fluoro-5-(trifluoromethyl)pyridin-2-yl]acetamide]	1 to 3
CCc1cc2c(s1)C(=O)N(CC(=O)Nc1ncc(Cl)cc1F)CC21CC1 [Compound 57, N-(5-Chloro-3-fluoropyridin-2-yl)-2-{2′-ethyl-7′-oxo-6′,7′-dihydro-5′H-spiro[cyclopropane-1,4′-thieno[2,3-c]pyridin]-6′-yl}acetamide]	1 to 3
O=C(CN1CC2(CC2)c2oc(C3CC3)cc2C1=O)Nc1ccc2nncn2c1 [Compound 58, 2-{2′-Cyclopropyl-4′-oxo-5′,6′-dihydro-4′H-spiro[cyclopropane-1,7′-furo[3,2-c]pyridin]-5′-y}—N-{[1,2,4]triazolo[4,3-a]pyridin-6-yl}acetamide]	3 to 10
O=C(CN1CC2(CC2)c2oc(C3CC3)cc2C1=O)Nc1ccc2nncn2n1 [Compound 59, 2-{2′-Cyclopropyl-4′-oxo-5′,6′-dihydro-4′H-spiro[cyclopropane-1,7′-furo[3,2-c]pyridin]-5′-yl}-N-{[1,2,4]triazolo[4,3-b]pyridazin-6-yl}acetamide]	0.1 to 1
CCc1cc2c(s1)C(=O)N(CC(=O)Nc1ncc(N)cn1)CC21CC1 [Compound 60, N-(5-Aminopyrimidin-2-yl)-2-{2′-ethyl-7′-oxo-6′,7′-dihydro-5′H-spiro[cyclopropane-1,4′-thieno[2,3-c]pyridin]-6′-yl}acetamide]	0.1 to 1
CCc1cc2c(s1)C(=O)N(CC(=O)Nc1ncc(OC)cn1)CC21CC1 [Compound 61, 2-{2′-Ethyl-7′-oxo-6′,7′-dihydro-5′H-spiro[cyclopropane-1,4′-thieno[2,3-c]pyridin]-6′-yl}-N-(5-methoxypyrimidin-2-yl)acetamide]	0.1 to 1
CCc1cc2c(s1)C(=O)N(CC(=O)Nc1ncc(O)cn1)CC21CC1 [Compound 62, 2-{2′-Ethyl-7′-oxo-6′,7′-dihydro-5′H-spiro[cyclopropane-1,4′-thieno[2,3-c]pyridin]-6′-yl}-N-(5-hydroxypyrimidin-2-yl)acetamide]	0.1 to 1
CCc1cc2c(s1)C(=O)N(CC(=O)Nc1ncc(C#N)cn1)CC21CC1 [Compound 63, N-(5-Cyanopyrimidin-2-yl)-2-{2′-ethyl-7′-oxo-6′,7′-dihydro-5′H-spiro[cyclopropane-1,4′-thieno[2,3-c]pyridin]-6′-yl}acetamide]	0.1 to 1
CC1CN(CC(=O)Nc2ncccn2)C(=O)c2cc(C3CC3)oc21 (stereo not drawn) [Compound 65, 2-(2-Cyclopropyl-7-methyl-4-oxo-6,7-dihydrofuro[3,2-c]pyridin-5(4H)-yl)-N-(pyrimidin-2-yl)acetamide]	0.1 to 1
CCc1cc2c(s1)C(=O)N(CC(=O)Nc1ncc(C#N)cc1F)CC21CC1 [Compound 66, N-(5-cyano-3-fluoropyridin-2-yl)-2-(2′-ethyl-7′-oxo-5′H-spiro[cyclopropane-1,4′-thieno[2,3-c]pyridin]-6′(7′H)-yl)acetamide]	0.1 to 1
CC1CN(CC(=O)Nc2ncccn2)C(=O)c2cc3scnc3n21 (stereo not drawn) [Compound 67, 2-(5-Methyl-8-oxo-5,6-dihydrothiazolo[5′,4′:4,5]pyrrolo[1,2-a]pyrazin-7(8H)-yl)-N-(pyrimidin-2-yl)acetamide]	0.1 to 1
CCc1cc2c(s1)C(=O)N(CC(=O)Nc1ncc3[nH]c(=O)n(C)c3n1)CC21CC1 [Compound 68, 2-(2′-Ethyl-7′-oxo-5′H-spiro[cyclopropane-1,4′-thieno[2,3-c]pyridin]-6′(7′H)-yl)-N-(9-methyl-8-oxo-8,9-dihydro-7H-purin-2-yl)acetamide]	3 to 10
CCc1cc2c(s1)C(C)CN(CC(=O)Nc1ncccn1)C2=O (stereo not drawn) [Compound 69]	1 to 3
CC1CN(CC(=O)Nc2ncccn2)C(=O)c2cc(C3CC3)sc21 (stereo not drawn) [Compound 70, 2-(2-Cyclopropyl-7-methyl-4-oxo-6,7-dihydrothieno[3,2-c]pyridin-5(4H)-yl)-N-(pyrimidin-2-yl)acetamide]	3 to 10
CCc1cc2c(s1)C(=O)N(CC(=O)Nc1ncc3c(n1)[nH]c(=O)n3C)CC21CC1 [Compound 71, 2-(2′-Ethyl-7′-oxo-5′H-spiro[cyclopropane-1,4′-thieno[2,3-c]pyridin]-6′(7′H)-yl)-N-(7-methyl-8-oxo-8,9-dihydro-7H-purin-2-yl)acetamide]	1 to 3
CNc1nc2c(s1)C(=O)N(CC(=O)Nc1ncccn1)CC21CC1 [Compound 72, 2-(2′-(Methylamino)-4′-oxo-4′H-spiro[cyclopropane-1,7′-thiazolo[5,4-c]pyridin]-5′(6′H)-yl)-N-(pyrimidin-2-yl)acetamide]	3 to 10
